From US8822486B2, “Spiropiperidine compounds” (Eli Lilly and Company, priority 2009, dated 2014)

How the values were obtained:
[1] = system: mouse insulinoma cell line Min6; experiment: Glucose Dependent Insulin Secretion (GDIS) assay in Min6 cells; type: cell-based; conditions: 1 μM plus 25 mM glucose compared to 25 mM glucose alone; 2 h incubation
Method: Because activation of GPR40 is known to result in insulin secretion which is dependent on high glucose concentrations, two separate assay systems (insulinoma cell line and primary rodent islets) are developed to further characterize compounds that are known to increase intracellular calcium in the GPR40 primary assay discussed above.
GDIS assays are performed using the mouse insulinoma cell line Min6. Min6 cells are maintained in Dulbecco's Modified Eagle's Medium (DMEM) containing non-essential amino acids, 10% FBS, […] 2-mercaptoethanol and 1% penicillin and streptomycin at 37° C. plus 5% CO2 On the day of the experiment, the cells are washed twice with 200 μl of pre-warmed Krebs-ringer buffer without glucose. Addition of 200 μL of pre-warmed Krebs-ringer buffer containing 2.5 mM glucose is used to starve the cells followed by the addition of compounds in the presence of a high concentration of glucose (25 mM). The plate is incubated at 37° C. for 2 hours. At the end of the 2 h incubation, the supernatant is gently transferred into a Millipore filter plate and spun at 200 g (gravitational force) for 3 minutes. Insulin is assayed using a Mercodia Insulin estimation kit.

PPARδ = biological target: T1, PPARδ (Homo sapiens, UniProt Q03181); experiment: PPARδ binding assay (SPA); conditions: concentrations up to 10 μM
T1 construct: made in house; host or cells: HEK293 (cell lysates)
T1 sequence (Q03181 1-441): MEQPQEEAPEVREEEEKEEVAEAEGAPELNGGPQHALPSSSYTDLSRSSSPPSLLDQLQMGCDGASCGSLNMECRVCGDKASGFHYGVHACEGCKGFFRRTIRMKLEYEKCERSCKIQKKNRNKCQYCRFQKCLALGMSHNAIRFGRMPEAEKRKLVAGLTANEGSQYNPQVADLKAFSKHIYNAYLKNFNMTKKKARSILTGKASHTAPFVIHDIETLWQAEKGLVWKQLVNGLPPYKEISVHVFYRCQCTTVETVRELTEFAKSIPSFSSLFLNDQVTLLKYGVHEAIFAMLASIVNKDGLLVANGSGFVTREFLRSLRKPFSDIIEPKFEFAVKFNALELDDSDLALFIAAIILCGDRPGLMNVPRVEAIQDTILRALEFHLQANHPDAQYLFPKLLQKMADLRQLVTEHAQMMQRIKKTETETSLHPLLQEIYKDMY
T1 sequence (P19793 1-462 partner): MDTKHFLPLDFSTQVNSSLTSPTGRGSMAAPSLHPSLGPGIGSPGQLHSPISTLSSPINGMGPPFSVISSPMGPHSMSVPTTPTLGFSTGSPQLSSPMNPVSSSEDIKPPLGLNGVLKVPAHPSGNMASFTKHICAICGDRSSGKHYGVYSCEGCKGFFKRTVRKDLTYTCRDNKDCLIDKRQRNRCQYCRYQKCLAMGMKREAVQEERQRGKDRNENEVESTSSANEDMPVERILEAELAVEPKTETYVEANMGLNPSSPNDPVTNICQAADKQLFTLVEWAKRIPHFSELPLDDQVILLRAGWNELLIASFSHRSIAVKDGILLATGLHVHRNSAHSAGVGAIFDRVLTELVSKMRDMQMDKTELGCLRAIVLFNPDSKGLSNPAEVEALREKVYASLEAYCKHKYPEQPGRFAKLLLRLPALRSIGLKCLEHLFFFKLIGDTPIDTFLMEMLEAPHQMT
Method: Because GPR40 is known to be activated by ligands to PPARγ exemplified compounds are examined in PPARα, PPARδ, and PPARγ binding and functional assays to determine the selectivity of exemplified compounds for GPR40. Compounds exemplified herein are tested essentially as described below for PPAR binding and generally have binding values greater than 1000 nM with 10 μM concentrations of test compound and are thus considered negative for PPAR activity.
Binding affinities of compounds for the PPAR α, δ, and γ receptors are assessed using Scintillation Proximity Assay (SPA) technology. Biotinylated oligonucleotide Direct Repeat 2 (DR2) is used for binding the receptors to Yttrium silicate streptavidin-coated SPA beads. […] Non-specific binding is determined in the presence of 10,000 nM of the unlabeled PPAR α/δ dual agonist reference compound for the alpha and delta receptor assays and the PPARγ agonist reference compound for the gamma receptor assay. The binding reaction (100 μl per well in a 96 well [Costar 3632] plate) is incubated for 10 h and counted disintegration per minutes (dpm) on a Wallac Microbeta. Receptor binding affinity (IC50) for the compounds is determined by fitting an 11 point concentration-response curve with a 4-paramater logistic equation. K, is determined from the IC50 using the Cheng-Prussoff equation and Kd determined by saturation binding. […]

**Q.** How did the “increase in insulin secretion” value [1] turn out when `CC#C[C@@H](CC(=O)O)c1ccc(OCc2ccc(CN3CCC4(C=Cc5ccccc54)CC3)s2)cc1` [Example 1, (3S)-3-[4-[[5-(Spiro[indene-1,4′-piperidine]-1′-ylmethyl)-2-thienyl]methoxy]phenyl]hex-4-ynoic acid] was run?
**A.** two-fold increase

**Q.** What about the PPARδ binding (PPARδ) of the same compound?
**A.** no binding is detected
